Consider eight compounds from patent US6391917B1, “Dialkyl ureas as calcitonin mimetics” (ZymoGenetics, Inc., priority 1998, dated 2002).

Format in all cases: cell-based
Assay [1] concerns PTH-induced bone resorption in mouse calvariae. The experiment in a line: Calvarial assay: PTH-induced bone resorption, calcium release. The note with it: 1 nM PTH 1-34, 72 hours. Here is the method:
Calvaria from 4-day old neonatal CD-1 mice (pregnant mice received from Charles River Laboratories, Wilmington, Mass.) were trimmed with fine-tipped scissors to leave the parietal regions, including the sagittal suture. These trimmed bones were placed singly per well into 6-well cell culture cluster plates (Costar, Pleasanton, Calif.) with 1 ml/well of Dulbecco's […] Essential Medium, […] (DMEM, BioWhittaker, Walkersville, Md.) or Basal Eagle's Medium with Earle's salts (EMEM, Gibco/BRL, Grand Island, N.Y.) and 0.29 mg/ml L-glutamine, 1 mM sodium pyruvate, 15% heat-inactivated horse serum, and antibiotics (penicillin-G 50 μg/ml, streptomycin 50 μg/ml, and neomycin 100 μg/ml). Calvaria were rocked gently (RedRocker™, model PR50-115 V, Hoefer, San Francisco, Calif. or Labline Rocking Shaker, model 4635, Labline Instruments, Melrose Park, Ill.) at 37° C. in a 5% CO2 humidified incubator for 24 hours preincubation.
Following preincubation, medium was removed and replaced with 1.5 ml/well of growth medium containing 1 nM parathyroid hormone (PTH) 1-34 (Sigma) to stimulate bone resorption. For evaluation of the ability of calcitonin mimetics to inhibit PTH induced bone resorption, mimetic compounds in DMSO were added to the growth medium at concentrations ranging from 1-400 μg/ml (final assay concentration of DMSO less than or equal to 1%). In each experiment human calcitonin (0.02-2 nM, 0.2-2 nM preferred) was added to PTH treated bones as a positive control. […] All control wells contained a final assay concentration of DMSO equal to that present in calcitonin mimetic treated wells.
Five bones were included in each sample group. Bones were incubated for 72 hours following PTH addition to allow resorption of bone to occur. Observations were made of the general appearance, healthiness and number of cells. that migrate from the calvaria during the incubation as a possible indication of cell toxicity. Calvaria to be examined histologically were transferred to glass scintillation vials containing 10 ml of 10% neutral buffered formalin. […]

Assay [2] has as its target T1, Human calcitonin receptor (Homo sapiens, UniProt P30988).
T1 construct: expressed in transfected cells; host or cells: BHK-570 (Hollex-1)
T1 sequence (P30988 25-474): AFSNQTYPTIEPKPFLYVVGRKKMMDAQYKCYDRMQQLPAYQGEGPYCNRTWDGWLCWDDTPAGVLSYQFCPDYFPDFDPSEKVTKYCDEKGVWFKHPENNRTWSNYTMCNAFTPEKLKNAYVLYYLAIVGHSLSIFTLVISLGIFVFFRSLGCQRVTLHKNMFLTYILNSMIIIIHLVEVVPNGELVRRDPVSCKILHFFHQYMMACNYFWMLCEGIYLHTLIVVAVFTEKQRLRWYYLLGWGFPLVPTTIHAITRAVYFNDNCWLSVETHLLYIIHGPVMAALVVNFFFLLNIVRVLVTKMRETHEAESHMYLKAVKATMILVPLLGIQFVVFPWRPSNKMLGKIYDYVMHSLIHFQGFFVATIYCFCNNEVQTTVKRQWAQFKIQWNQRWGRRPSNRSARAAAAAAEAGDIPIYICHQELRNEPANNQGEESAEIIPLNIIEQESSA
The experiment in a line: CRE-luciferase assay for calcitonin mimetics (Hollex-1). As to the method: CRE-Luciferase Assay Method for Calcitonin Mimetics
Human calcitonin receptor-positive and receptor-negative BHK-570 (Baby Hamster Kidney) cell lines were maintained by serial passage in growth medium (DMEM supplemented with 10% heat-inactivated fetal calf serum (HI-FCS), 2 mM L-glutamine, 1 mM sodium pyruvate, 250 nM MTX, and 1 mg/mL G418). On the day prior to assay, cells were trypsinized, adjusted to 2.5×10^5 cells/ml in growth medium, plated in opaque white Dynatech Microlite microtiter tissue culture plates at 50 μL/well, and grown overnight to confluence (37° C., 5% CO2 atmosphere).
Test substances were prepared in DMSO or 10% DMF at 100 times the final desired assay concentration. […] Controls were included on each plate: untreated wells (basal), […], and 100 nM human calcitonin. DMSO or DMF was included in control wells at a concentration equal to that in test samples (not to exceed a final assay concentration of 2% DMSO or 0.5% DMF, with a preferred maximum of 1% DMSO or 0.1% DMF).
Plates were incubated for 3 to 8 hours (4 hours preferred) at 37° C. in an atmosphere of 5% CO2. Following induction, luciferase activity was measured using a Promega luciferase assay kit (E1500) according to the assay kit protocol (Promega Corp., Madison, Wis.). Briefly, assay medium was removed and cells were washed once with phosphate buffered saline (PBS). After the wash, 25 μl of lysis buffer was added to each well, and the plates were incubated for 15 minutes at room temperature. Fifty microliters of Luciferase Assay Substrate (Promega, Corp.) was added to each well and the plates were transferred to a Labsystems Lumiscan microtiter luminometer (Labsystems Inc., Morton Grove, Ill.). The amount of luminescence (relative light units, RLU) was determined following a 0.1 second/well integration of signal. Basal (uninduced) luciferase signal was subtracted from all measurements, and the luciferase signal induced by test samples was expressed as a percentage of the signal in the calcitonin and forskolin controls. Specificity of the luciferase induction for calcitonin receptor-positive cell lines was determined by comparing the percent control values in the calcitonin receptor-positive line (Hollex-1) to those observed in the calcitonin receptor-negative cell line (KZ10-20-48/Zem 228) and the PTH receptor-positive cell line (KZ10-20-48/PTH-20) described below. Samples inducing a signal over the basal level were selected for further characterization, see Table 1 for examples.

For assay [3], the system named is osteoclasts in mouse calvariae. The experiment in a line: Calvaria histology (osteoclast number and size, toxicity). As to conditions: for Histology (bone destruction by PTH, Oc size and #): mouse calvariae treated with PTH. The text has this: To confirm the findings in the calvarial bone resorption assay employing calcium release from culture mouse calvariae, selected bones were fixed in 10% neutral buffered formalin and demineralized in 5% formic acid with 5% formalin. The bones were dehydrated through an ascending series of ethanol concentrations, infiltrated in glycol methacrylate, and embedded using a JB-4 embedding kit (PolySciences, Warrington, Pa.) (Liu, et al., J. Bone Mineral Res. 5:973-82, 1990). When necessary, an alternative embedding method (paraffin embedding) was used to speed up the embedding process. Cross sections of calvariae cut at 5 μm were obtained and stained for tartrate-resistant acid phosphatase (TRAP) activity and counterstained with methyl green and thionin for cell morphology (Liu, et al., ibid.). Osteoclasts were identified by TRAP stain, multinucleation, large cell size, and irregular cell shape. The number of osteoclasts were counted from endocranial and ectocranial bone surfaces and expressed as number/mm perimeter. The size of all the osteoclasts counted was also measured using a Bone Morphometry program (Liu, et al., ibid.; Bain, et al., J. Bone Miner. Res. 8:435-42, 1993). […] This PTH-induced increase was suppressed by treatment with human calcitonin.
Calcitonin mimetic compounds were evaluated in a similar fashion for their ability to suppress PTH-induced increases in osteoclast number and size (Table 2). Cell toxicity (or death) was also evaluated by the appearance of pyknotic nuclei in a small number of bone cells. With an increased level of toxicity, a further increase in the number of these pyknotic nuclei, detachment of cells from bone surfaces, and losses of cytoplasmic stain and cell boundaries were observed. The osteocytic space also appeared empty.

Take `C=CCNC(=O)[C@@H](Cc1ccc(F)cc1)NC(=O)Nc1cc(C(C)(C)C)ccc1C(C)(C)C` [628-033]: the “Release of PTH Induced Ca++ IC50” value in assay [1] amounted to 30 µg/mL. Further, the “Luciferase induction (% of maximum luciferase induction produced by CT, 100 nM)” value in assay [2] (crude compound 6.25 μg/ml) is given as 14.71%; in assay [2] (crude compound 12.5 μg/ml), 27.68%; in assay [2] (crude compound 25 μg/ml), 31.63%; in assay [2] (crude compound 50 μg/ml), 33.62%. For the same compound, in assay [3], the “Histology (bone destruction by PTH, Oc size and #)” value (“Histology” for short) was “Decreases in bone”.

As for `C=CCNC(=O)[C@@H](Cc1ccc2ccccc2c1)NC(=O)Nc1cc(C(C)(C)C)ccc1C(C)(C)C` [628-035], the “Release of PTH Induced Ca++ IC50” value in assay [1] came to 23 µg/mL. For the same compound, the “Luciferase induction (% of maximum luciferase induction produced by CT, 100 nM)” value in assay [2] (crude compound 6.25 μg/ml) is given as 34.84%; in assay [2] (crude compound 12.5 μg/ml) it was 43.25%; in assay [2] (crude compound 25 μg/ml) it was 46.43%; in assay [2] (crude compound 50 μg/ml), 52.27%. In addition, the “Histology” value in assay [3] is “Decreases in bone”.

Turning to `CC(C)(C)c1ccc(C(C)(C)C)c(NC(=O)N[C@H](Cc2ccc(Cl)cc2)C(=O)NCc2ccc3ccccc3c2)c1` [628-052], the “Luciferase induction (% of maximum luciferase induction produced by CT, 100 nM)” value in assay [2] (crude compound 3.125 μg/ml) is 9.57%; in assay [2] (crude compound 6.25 μg/ml) it was 23.59%; in assay [2] (crude compound 12.5 μg/ml) it was 36.63%; in assay [2] (crude compound 25 μg/ml), 40.21%; in assay [2] (crude compound 50 μg/ml), 38.27%.

As for `CC(C)(C)c1ccc(C(C)(C)C)c(NC(=O)N[C@H](Cc2ccc(F)cc2)C(=O)NCc2ccc3ccccc3c2)c1` [628-053], the “Luciferase induction (% of maximum luciferase induction produced by CT, 100 nM)” value worked out at 3.29% in assay [2] (crude compound 3.125 μg/ml); 11.89% in assay [2] (crude compound 6.25 μg/ml); 32.31% in assay [2] (crude compound 12.5 μg/ml); 41.8% in assay [2] (crude compound 25 μg/ml); 40.14% in assay [2] (crude compound 50 μg/ml).

On to `CC(C)(C)c1ccc(C(C)(C)C)c(NC(=O)N[C@H](Cc2ccc(I)cc2)C(=O)NCc2ccc3ccccc3c2)c1` [628-054], for which the “Luciferase induction (% of maximum luciferase induction produced by CT, 100 nM)” value in assay [2] (crude compound 3.125 μg/ml) is 10.73%; in assay [2] (crude compound 6.25 μg/ml) it was 27.05%; in assay [2] (crude compound 12.5 μg/ml), 42.54%; in assay [2] (crude compound 25 μg/ml), 47.47%; in assay [2] (crude compound 50 μg/ml), 54.86%.

With `CC(C)(C)c1ccc(C(C)(C)C)c(NC(=O)N[C@H](Cc2ccc3ccccc3c2)C(=O)NCc2ccc3ccccc3c2)c1` [628-055], the “Release of PTH Induced Ca++ IC50” value in assay [1] came out at 14 µg/mL. In addition, the “Luciferase induction (% of maximum luciferase induction produced by CT, 100 nM)” value in assay [2] (crude compound 6.25 μg/ml) is 24.81%; in assay [2] (crude compound 12.5 μg/ml), 35.48%; in assay [2] (crude compound 25 μg/ml) it was 43.3%; in assay [2] (crude compound 50 μg/ml) it was 48.69%. In addition, in assay [3], the “Histology” value is given as “Decreases in bone”.

As for `CC(C)(C)c1ccc(C(C)(C)C)c(NC(=O)N[C@@H](C(=O)NCc2ccc3ccccc3c2)c2ccccc2)c1` [628-056], the “Luciferase induction (% of maximum luciferase induction produced by CT, 100 nM)” value in assay [2] (crude compound 3.125 μg/ml) stood at 4.2%; in assay [2] (crude compound 6.25 μg/ml) it was 14.7%; in assay [2] (crude compound 12.5 μg/ml) it was 28.6%; in assay [2] (crude compound 25 μg/ml), 35.6%; in assay [2] (crude compound 50 μg/ml) it was 37.1%.

Regarding `CC[C@H](C)[C@H](NC(=O)[C@H](C)NC(=O)[C@@H](NC(=O)[C@H](CCC(N)=O)NC(=O)[C@@H]1CCCN1C(=O)[C@H](Cc1ccccc1)NC(=O)[C@@H](NC(=O)[C@H](Cc1c[nH]cn1)NC(=O)[C@H](Cc1ccccc1)NC(=O)[C@H](CCCCN)NC(=O)[C@H](CC(N)=O)NC(=O)[C@H](Cc1ccccc1)NC(=O)[C@H](CC(=O)O)NC(=O)[C@H](CCC(N)=O)NC(=O)[C@@H](NC(=O)[C@H](Cc1ccc(O)cc1)NC(=O)[C@@H](NC(=O)CNC(=O)[C@H](CC(C)C)NC(=O)[C@H](CCSC)NC(=O)[C@@H]1CSSC[C@H](N)C(=O)NCC(=O)N[C@@H](CC(N)=O)C(=O)N[C@@H](CC(C)C)C(=O)N[C@@H](CO)C(=O)N[C@@H]([C@@H](C)O)C(=O)N1)[C@@H](C)O)[C@@H](C)O)[C@@H](C)O)[C@@H](C)O)C(=O)NCC(=O)N[C@H](C(=O)NCC(=O)N[C@@H](C)C(=O)N1CCC[C@H]1C(N)=O)C(C)C` [human calcitonin, reference compound], the “PTH-induced increase in number and size of osteoclasts” value in assay [3] (mouse calvariae, PTH 1-34 treatment) was “suppressed”.
